According to PubChem BioAssay (NCI):
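48-hour exposure; five concentrations; linearly interpolated endpoints. At the GI50, growth is halved. TGI marks complete inhibition of growth.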

Key:
Experiment in all cases: growth of human tumour cells (NCI), 48 h
SF-295 CNS = system: SF-295 CNS
A498 renal = system: A498 renal
M14 melanoma = system: M14 melanoma
HT29 colon = system: HT29 colon
OVCAR-4 ovarian = system: OVCAR-4 ovarian
DU-145 prostate = system: DU-145 prostate
PC-3 prostate = system: PC-3 prostate
T-47D breast = system: T-47D breast
NCI-H226 lung = system: NCI-H226 lung
TK-10 renal = system: TK-10 renal
HOP-62 NSCLC = system: HOP-62 NSCLC
OVCAR-5 ovarian = system: OVCAR-5 ovarian
EKVX NSCLC = system: EKVX NSCLC
786-0 renal = system: 786-0 renal
SW-620 colon = system: SW-620 colon
SNB-75 CNS = system: SNB-75 CNS
HS 578T breast = system: HS 578T breast
RPMI-8226 leukemia = system: RPMI-8226 leukemia
SNB-19 CNS = system: SNB-19 CNS
RXF 393 renal = system: RXF 393 renal
SF-539 CNS = system: SF-539 CNS
CCRF-CEM leukemia = system: CCRF-CEM leukemia
SF-268 CNS = system: SF-268 CNS
SK-OV-3 ovarian = system: SK-OV-3 ovarian
NCI-H23 lung = system: NCI-H23 lung
CAKI-1 renal = system: CAKI-1 renal
NCI/ADR-RES ovarian = system: NCI/ADR-RES ovarian
MOLT-4 leukemia = system: MOLT-4 leukemia
NCI-H460 lung = system: NCI-H460 lung
A549 NSCLC = system: A549 NSCLC
UO-31 renal = system: UO-31 renal
UACC-257 melanoma = system: UACC-257 melanoma
SK-MEL-5 melanoma = system: SK-MEL-5 melanoma
HL-60(TB) leukemia = system: HL-60(TB) leukemia
COLO 205 colon = system: COLO 205 colon

Work on `CC(=O)C1CCC2C3CC=C4CC(SC(=N)N)CCC4(C)C3CCC12C` (stereo not given) yielded a GI50 (SF-295 CNS) of 1490 nM, a TGI (SF-295 CNS) of 2990 nM and a GI50 (A498 renal) of 1190 nM. The TGI (A498 renal) was 3730 nM, the GI50 (M14 melanoma) was 1460 nM and the TGI (M14 melanoma) was 2810 nM. It also gave a GI50 (HT29 colon) of 809 nM, a TGI (HT29 colon) of 2140 nM and a GI50 (OVCAR-4 ovarian) of 1850 nM. It also gave a TGI (OVCAR-4 ovarian) of 4800 nM, a GI50 (DU-145 prostate) of 3130 nM and a TGI (DU-145 prostate) of 10300 nM. It also gave a GI50 (PC-3 prostate) of 1550 nM, a TGI (PC-3 prostate) of 4200 nM and a GI50 (T-47D breast) of 2020 nM. For the same compound, the TGI (T-47D breast) was 4850 nM, the GI50 (NCI-H226 lung) was 2900 nM and the TGI (NCI-H226 lung) was 9260 nM. It also gave a GI50 (TK-10 renal) of 1690 nM, a TGI (TK-10 renal) of 3170 nM and a GI50 (HOP-62 NSCLC) of 1930 nM. It also gave a TGI (HOP-62 NSCLC) of 3600 nM, a GI50 (OVCAR-5 ovarian) of 2430 nM and a TGI (OVCAR-5 ovarian) of 8870 nM. For the same compound, the GI50 (EKVX NSCLC) was 1430 nM, the TGI (EKVX NSCLC) was 6880 nM and the GI50 (786-0 renal) was 1640 nM. The TGI (786-0 renal) was 3290 nM, the GI50 (SW-620 colon) was 1620 nM and the TGI (SW-620 colon) was 3160 nM. It also gave a GI50 (SNB-75 CNS) of 1580 nM, a TGI (SNB-75 CNS) of 4150 nM and a GI50 (HS 578T breast) of 2560 nM. The TGI (HS 578T breast) was 11300 nM, the GI50 (RPMI-8226 leukemia) was 1410 nM and the TGI (RPMI-8226 leukemia) was 3330 nM. It also gave a GI50 (SNB-19 CNS) of 3120 nM, a TGI (SNB-19 CNS) of 32100 nM and a GI50 (RXF 393 renal) of 1660 nM. The TGI (RXF 393 renal) was 3630 nM, the GI50 (SF-539 CNS) was 1870 nM and the TGI (SF-539 CNS) was 3960 nM. For the same compound, the GI50 (CCRF-CEM leukemia) was 1790 nM, the TGI (CCRF-CEM leukemia) was 4260 nM and the GI50 (SF-268 CNS) was 3110 nM. For the same compound, the TGI (SF-268 CNS) was 16100 nM, the GI50 (SK-OV-3 ovarian) was 4190 nM and the TGI (SK-OV-3 ovarian) was 18000 nM. The GI50 (NCI-H23 lung) was 2020 nM, the TGI (NCI-H23 lung) was 5340 nM and the GI50 (CAKI-1 renal) was 1680 nM. For the same compound, the TGI (CAKI-1 renal) was 4240 nM, the GI50 (NCI/ADR-RES ovarian) was 2000 nM and the TGI (NCI/ADR-RES ovarian) was 5280 nM. It also gave a GI50 (MOLT-4 leukemia) of 1780 nM, a TGI (MOLT-4 leukemia) of 4190 nM and a GI50 (NCI-H460 lung) of 1580 nM. The TGI (NCI-H460 lung) was 3090 nM, the GI50 (A549 NSCLC) was 1820 nM and the TGI (A549 NSCLC) was 3610 nM. For the same compound, the GI50 (UO-31 renal) was 2360 nM, the TGI (UO-31 renal) was 7540 nM and the GI50 (UACC-257 melanoma) was 1690 nM. For the same compound, the TGI (UACC-257 melanoma) was 3340 nM, the GI50 (SK-MEL-5 melanoma) was 1650 nM and the TGI (SK-MEL-5 melanoma) was 3010 nM. It also gave a GI50 (HL-60(TB) leukemia) of 1880 nM, a TGI (HL-60(TB) leukemia) of 4190 nM and a GI50 (COLO 205 colon) of 1600 nM. For the same compound, the TGI (COLO 205 colon) was 2940 nM.
